# Test results reported in ChEMBL document CHEMBL1833855, “A facile synthesis of carbocycle-fused mono and bis-1,2,3-selenadiazoles and their antimicrobial and antimycobacterial studies” (2011).
# Legend:
# Escherichia coli [1] = test: Antibacterial activity against Escherichia coli ATCC 25922 after 18 to 24 hrs by NCCLS M7-A5 based agar dilution method; assay type: functional
# Escherichia coli [2] = test: Antibacterial activity against Escherichia coli ATCC 25922 assessed as zone of inhibition at 100 ug/disc after 24 hrs by agar disc diffusion method; assay type: functional; settings: ATCC 25922, 24 h, read-out: DIZ
# Staphylococcus aureus [3] = test: Antibacterial activity against Staphylococcus aureus ATCC 11632 after 18 to 24 hrs by NCCLS M7-A5 based agar dilution method; assay type: functional
# Staphylococcus aureus [4] = test: Antibacterial activity against Staphylococcus aureus ATCC 11632 assessed as zone of inhibition at 100 ug/disc after 24 hrs by agar disc diffusion method; assay type: functional; settings: ATCC 11632, 24 h, read-out: DIZ
# Candida albicans [5] = test: Antifungal activity against Candida albicans ATCC 90028 after 18 to 24 hrs by NCCLS M7-A5 based agar dilution method; assay type: functional
# Candida albicans [6] = test: Antifungal activity against Candida albicans ATCC 90028 assessed as zone of inhibition at 100 ug/disc after 48 hrs by agar disc diffusion method; assay type: functional; settings: ATCC 90028, 48 h, read-out: DIZ
# [7] = system: Mycobacterium tuberculosis; test: Antituberculosis activity against 10^7 cfu/mL Mycobacterium tuberculosis H37Rv after 28 days; assay type: functional; settings: 672 h
# Escherichia coli [8] = test: microbe, parasite or virus in culture; settings: ATCC 25922, 24 h, read-out: DIZ
# Description: Antibacterial activity against Escherichia coli ATCC 25922 assessed as zone of inhibition at 10 ug/disc after 24 hrs by agar disc diffusion method
# Staphylococcus aureus [9] = test: microbe, parasite or virus in culture; settings: ATCC 11632, 24 h, read-out: DIZ
# Description: Antibacterial activity against Staphylococcus aureus ATCC 11632 assessed as zone of inhibition at 10 ug/disc after 24 hrs by agar disc diffusion method
# Candida albicans [10] = test: Antifungal activity against Candida albicans ATCC 90028 assessed as zone of inhibition at 10 ug/disc after 48 hrs by agar disc diffusion method; assay type: functional; settings: ATCC 90028, 48 h, read-out: DIZ
Compound,MIC (Escherichia coli [1]) [µg/mL],zone of inhibition at 100 µg/disc (Escherichia coli [2]) [mm],MIC (Staphylococcus aureus [3]) [µg/mL],zone of inhibition at 100 µg/disc (Staphylococcus aureus [4]) [mm],MIC (Candida albicans [5]) [µg/mL],zone of inhibition at 100 µg/disc (Candida albicans [6]) [mm],MIC [7] [µM],zone of inhibition at 10 µg/disc (Escherichia coli [8]) [mm],zone of inhibition at 10 µg/disc (Staphylococcus aureus [9]) [mm],zone of inhibition at 10 µg/disc (Candida albicans [10]) [mm]
Cc1ccc(C(=O)C[C@@H](c2ccc(Cl)cc2)[C@@H]2CCCc3[se]nnc32)cc1,12.5,15,25,18,12.5,17,3.5,–,–,–
COc1ccc([C@H](c2[se]nnc2-c2ccccc2)[C@@H]2CCCc3[se]nnc32)cc1,50,15,50,15,50,< 10,48.6,–,–,–
c1ccc(-c2nn[se]c2[C@@H](c2ccccc2)[C@@H]2CCCc3[se]nnc32)cc1,25,12,25,15,25,15,51.6,–,–,–
O=C(O)c1cn(C2CC2)c2cc(N3CCNCC3)c(F)cc2c1=O [CIPROFLOXACIN],–,–,–,–,–,–,–,28,25,–
Cc1ccc(-c2nn[se]c2[C@@H](c2ccc(Cl)cc2)[C@@H]2CCCc3[se]nnc32)cc1,25,15,25,15,12.5,15,23.5,–,–,–
O=C(C[C@@H](c1ccc(Cl)cc1)[C@@H]1CCCc2[se]nnc21)c1ccc(Cl)cc1,6.25,20,6.25,20,12.5,15,3.3,–,–,–
Cc1ccc(C(=O)C[C@@H](c2ccccc2)[C@@H]2CCCc3[se]nnc32)cc1,12.5,17,25,18,25,12,–,–,–,–
O=C(C[C@@H](c1ccc(Cl)cc1)[C@@H]1CCCc2[se]nnc21)c1ccccc1,12.5,18,12.5,16,25,15,3.6,–,–,–
O=C(C[C@@H](c1ccccc1)[C@@H]1CCCc2[se]nnc21)c1ccccc1,12.5,18,12.5,15,25,15,15.8,–,–,–
Cc1ccc([C@H](CC(=O)c2ccccc2)[C@@H]2CCCc3[se]nnc32)cc1,25,< 10,12.5,15,25,13,15.2,–,–,–
CC[C@@H](CO)NCCN[C@@H](CC)CO [ETHAMBUTOL],–,–,–,–,–,–,7.6,–,–,–
COc1ccc(-c2nn[se]c2[C@@H](c2ccccc2)[C@@H]2CCCc3[se]nnc32)cc1,25,12,25,12,50,12,48.6,–,–,–
Clc1ccccc1C(c1ccccc1)(c1ccccc1)n1ccnc1 [CLOTRIMAZOLE],–,–,–,–,6.25,–,–,–,–,28
Clc1ccc([C@H](c2[se]nnc2-c2ccccc2)[C@@H]2CCCc3[se]nnc32)cc1,50,< 10,25,20,25,10,24.1,–,–,–
Clc1ccc(-c2nn[se]c2[C@@H](c2ccccc2)[C@@H]2CCCc3[se]nnc32)cc1,25,13,25,10,25,13,48.2,–,–,–
COc1ccc(C(=O)C[C@@H](c2ccc(Cl)cc2)[C@@H]2CCCc3[se]nnc32)cc1,12.5,20,12.5,20,25,15,–,–,–,–
COc1ccc(-c2nn[se]c2[C@@H](c2ccc(Cl)cc2)[C@@H]2CCCc3[se]nnc32)cc1,12.5,18,25,18,25,15,45.5,–,–,–
Clc1ccc(-c2nn[se]c2[C@@H](c2ccc(Cl)cc2)[C@@H]2CCCc3[se]nnc32)cc1,12.5,15,25,15,12.5,15,22.5,–,–,–
Cc1ccc([C@H](c2[se]nnc2-c2ccccc2)[C@@H]2CCCc3[se]nnc32)cc1,25,12,12.5,16,50,10,50.2,–,–,–
O=C(C[C@@H](c1ccccc1)[C@@H]1CCCc2[se]nnc21)c1ccc2ccccc2c1,25,10,25,15,50,10,28,–,–,–
NNC(=O)c1ccncc1 [ISONIAZID],–,–,–,–,–,–,0.4,–,–,–
c1ccc([C@H](c2[se]nnc2-c2ccc3ccccc3c2)[C@@H]2CCCc3[se]nnc32)cc1,25,10,50,10,50,10,46.8,–,–,–
Cc1ccc(-c2nn[se]c2[C@@H](c2ccccc2)[C@@H]2CCCc3[se]nnc32)cc1,25,16,50,< 10,50,10,50.2,–,–,–
CO[C@H]1/C=C/O[C@@]2(C)Oc3c(C)c(O)c4c(O)c(c(/C=N/N5CCN(C)CC5)c(O)c4c3C2=O)NC(=O)/C(C)=C\C=C\[C@H](C)[C@H](O)[C@@H](C)[C@@H](O)[C@@H](C)[C@H](OC(C)=O)[C@@H]1C [RIFAMPIN],–,–,–,–,–,–,0.1,–,–,–
COc1ccc(C(=O)C[C@@H](c2ccccc2)[C@@H]2CCCc3[se]nnc32)cc1,12.5,12,25,15,25,15,29.3,–,–,–
COc1ccc([C@H](CC(=O)c2ccccc2)[C@@H]2CCCc3[se]nnc32)cc1,25,15,25,18,50,12,–,–,–,–
O=C(C[C@@H](c1ccccc1)[C@@H]1CCCc2[se]nnc21)c1ccc(Cl)cc1,25,10,12.5,15,12.5,15,7.2,–,–,–
